Results reported in ChEMBL document CHEMBL3885881, “DrugMatrix”.

Species on record: Rattus norvegicus
Assay: DrugMatrix - Regimen: Daily Repeat
Format: toxicity, organism-based, Sprague-Dawley
Design: regimen Daily Repeat, gender Male, age 6-8 weeks
Settings: in vivo, po, route oral GAVAGE, vehicle 100 % WATER; for ABSOLUTE BASOPHIL / ABSOLUTE EOSINOPHIL / ABSOLUTE LYMPHOCYTE / ABSOLUTE MONOCYTE / ABSOLUTE SEGMENTED NEUTROPHIL / BASOPHIL / EOSINOPHIL / ERYTHROCYTE COUNT / HEMATOCRIT / HEMOGLOBIN / LEUKOCYTE COUNT / LYMPHOCYTE / MEAN CORPUSCULAR HEMOGLOBIN / MEAN CORPUSCULAR HEMOGLOBIN CONCENTRATION / MEAN CORPUSCULAR VOLUME / MONOCYTE / NEUTROPHIL / NUCLEATED RED BLOOD CELLS / PLATELET COUNT: tissue Blood; for ALANINE AMINOTRANSFERASE / ALBUMIN / ALKALINE PHOSPHATASE / ASPARTATE AMINOTRANSFERASE / BLOOD UREA NITROGEN / CARBON DIOXIDE / CHLORIDE / CHOLESTEROL / CREATINE PHOSPHOKINASE / CREATININE / GLUCOSE / LACTATE DEHYDROGENASE / LIPASE / PHOSPHORUS / POTASSIUM / SODIUM / TOTAL BILIRUBIN / TOTAL PROTEIN / URIC ACID: tissue Plasma
[1] = 20 mg/kg, 120 h, dose level Low, time 5 day
[2] = 70 mg/kg, 72 h, dose level High, time 3 day
[3] = 70 mg/kg, 120 h, dose level High, time 5 day

## C=CCC1(C(C)CCC)C(=O)NC(=O)NC1=O (centres undefined) [SECOBARBITAL]
[1]
  ABSOLUTE BASOPHIL: 0 CELLS/uL
  ABSOLUTE EOSINOPHIL: 32 CELLS/uL
  ABSOLUTE LYMPHOCYTE: 7003.67 CELLS/uL
  ABSOLUTE MONOCYTE: 32 CELLS/uL
  ABSOLUTE SEGMENTED NEUTROPHIL: 565.67 CELLS/uL
  BASOPHIL: 0%
  EOSINOPHIL: 0.33%
  ERYTHROCYTE COUNT: 5.26 x10E6/uL
  HEMATOCRIT: 32.97%
  HEMOGLOBIN: 12.83 G/DL
  LEUKOCYTE COUNT: 7.63 x10E3/uL
  LYMPHOCYTE: 92%
  MEAN CORPUSCULAR HEMOGLOBIN: 24.43 pg
  MEAN CORPUSCULAR HEMOGLOBIN CONCENTRATION: 38.97 G/DL
  MEAN CORPUSCULAR VOLUME: 62.7 fL
  MONOCYTE: 0.33%
  NEUTROPHIL: 7.33%
  NUCLEATED RED BLOOD CELLS: 0.33 /100WBC
  PLATELET COUNT: 1182 x10E3/uL
  ALANINE AMINOTRANSFERASE: 49.33 u/L
  ALBUMIN: 3.97 G/DL
  ALKALINE PHOSPHATASE: 382 u/L
  ASPARTATE AMINOTRANSFERASE: 77.67 u/L
  BLOOD UREA NITROGEN: 13.67 mg/dL
  CARBON DIOXIDE: 34 mmol/L
  CHLORIDE: 99 MEQ/L
  CHOLESTEROL: 77.33 mg/dL
  CREATINE PHOSPHOKINASE: 254 u/L
  CREATININE: 0.16 mg/dL
  GLUCOSE: 144 mg/dL
  LACTATE DEHYDROGENASE: 142.33 u/L
  LIPASE: 9 u/L
  PHOSPHORUS: 11.07 mg/dL
  POTASSIUM: 5.94 MEQ/L
  SODIUM: 144.5 MEQ/L
  TOTAL BILIRUBIN: 0.17 mg/dL
  TOTAL PROTEIN: 5.87 G/DL
  URIC ACID: 0.4 mg/dL
[2]
  ABSOLUTE BASOPHIL: 0 CELLS/uL
  ABSOLUTE EOSINOPHIL: 0 CELLS/uL
  ABSOLUTE LYMPHOCYTE: 6560.67 CELLS/uL
  ABSOLUTE MONOCYTE: 45.33 CELLS/uL
  ABSOLUTE SEGMENTED NEUTROPHIL: 794 CELLS/uL
  BASOPHIL: 0%
  EOSINOPHIL: 0%
  ERYTHROCYTE COUNT: 5.13 x10E6/uL
  HEMATOCRIT: 31.93%
  HEMOGLOBIN: 12.3 G/DL
  LEUKOCYTE COUNT: 7.4 x10E3/uL
  LYMPHOCYTE: 88.67%
  MEAN CORPUSCULAR HEMOGLOBIN: 24 pg
  MEAN CORPUSCULAR HEMOGLOBIN CONCENTRATION: 38.53 G/DL
  MEAN CORPUSCULAR VOLUME: 62.27 fL
  MONOCYTE: 0.67%
  NEUTROPHIL: 10.67%
  NUCLEATED RED BLOOD CELLS: 0.33 /100WBC
  PLATELET COUNT: 827 x10E3/uL
  ALANINE AMINOTRANSFERASE: 56.67 u/L
  ALBUMIN: 4.03 G/DL
  ALKALINE PHOSPHATASE: 339 u/L
  ASPARTATE AMINOTRANSFERASE: 83 u/L
  BLOOD UREA NITROGEN: 12 mg/dL
  CARBON DIOXIDE: 34.67 mmol/L
  CHLORIDE: 98.67 MEQ/L
  CHOLESTEROL: 74.67 mg/dL
  CREATINE PHOSPHOKINASE: 397.33 u/L
  CREATININE: 0.11 mg/dL
  GLUCOSE: 142.33 mg/dL
  LACTATE DEHYDROGENASE: 178.33 u/L
  LIPASE: 9.67 u/L
  PHOSPHORUS: 11.4 mg/dL
  POTASSIUM: 6.11 MEQ/L
  SODIUM: 143 MEQ/L
  TOTAL BILIRUBIN: 0.17 mg/dL
  TOTAL PROTEIN: 5.87 G/DL
  URIC ACID: 0.63 mg/dL
[3]
  ABSOLUTE BASOPHIL: 0 CELLS/uL
  ABSOLUTE EOSINOPHIL: 40.33 CELLS/uL
  ABSOLUTE LYMPHOCYTE: 5577 CELLS/uL
  ABSOLUTE MONOCYTE: 23 CELLS/uL
  ABSOLUTE SEGMENTED NEUTROPHIL: 693 CELLS/uL
  BASOPHIL: 0%
  EOSINOPHIL: 0.67%
  ERYTHROCYTE COUNT: 5.58 x10E6/uL
  HEMATOCRIT: 33.8%
  HEMOGLOBIN: 13.07 G/DL
  LEUKOCYTE COUNT: 6.33 x10E3/uL
  LYMPHOCYTE: 88%
  MEAN CORPUSCULAR HEMOGLOBIN: 23.4 pg
  MEAN CORPUSCULAR HEMOGLOBIN CONCENTRATION: 38.67 G/DL
  MEAN CORPUSCULAR VOLUME: 60.5 fL
  MONOCYTE: 0.33%
  NEUTROPHIL: 11%
  NUCLEATED RED BLOOD CELLS: 0.33 /100WBC
  PLATELET COUNT: 1210.33 x10E3/uL
  ALANINE AMINOTRANSFERASE: 59.33 u/L
  ALBUMIN: 4.03 G/DL
  ALKALINE PHOSPHATASE: 373.67 u/L
  ASPARTATE AMINOTRANSFERASE: 85.33 u/L
  BLOOD UREA NITROGEN: 15.33 mg/dL
  CARBON DIOXIDE: 32.33 mmol/L
  CHLORIDE: 100 MEQ/L
  CHOLESTEROL: 63.33 mg/dL
  CREATINE PHOSPHOKINASE: 260.67 u/L
  CREATININE: 0.13 mg/dL
  GLUCOSE: 147 mg/dL
  LACTATE DEHYDROGENASE: 127.67 u/L
  LIPASE: 9 u/L
  PHOSPHORUS: 10.93 mg/dL
  POTASSIUM: 5.66 MEQ/L
  SODIUM: 145.65 MEQ/L
  TOTAL BILIRUBIN: 0.1 mg/dL
  TOTAL PROTEIN: 5.8 G/DL
  URIC ACID: 0.73 mg/dL
